We go through 32 compounds from patent US20230365553A1, “COMPOUNDS AND COMPOSITIONS FOR TREATING CONDITIONS ASSOCIATED WITH STING ACTIVITY” (IFM Due, Inc., priority 2020, published 2023).

One may read the EC50 as the concentration giving half of the maximal effect.

T1 sequence (Q86WV6 whole entry R71H/G230A/H232R/R293Q): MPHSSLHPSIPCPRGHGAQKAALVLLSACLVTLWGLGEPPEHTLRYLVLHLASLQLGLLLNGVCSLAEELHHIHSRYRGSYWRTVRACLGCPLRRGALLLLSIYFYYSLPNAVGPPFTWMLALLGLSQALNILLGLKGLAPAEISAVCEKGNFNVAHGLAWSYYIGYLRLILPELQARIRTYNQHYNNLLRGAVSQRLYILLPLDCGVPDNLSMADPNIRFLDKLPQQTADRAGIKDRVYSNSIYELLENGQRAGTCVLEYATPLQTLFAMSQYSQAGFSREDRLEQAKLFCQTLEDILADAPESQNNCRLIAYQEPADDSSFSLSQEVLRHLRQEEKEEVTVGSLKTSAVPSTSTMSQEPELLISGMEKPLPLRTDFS

The assay has as its target T1, STING (Homo sapiens, UniProt Q86WV6, G230A/H232R/R293Q/R71H).
T1 construct: host or cells: THP1-Dual KO-IFNAR2 cells
The assay can be described thus: STING reporter assay: luciferase reporter activity in THP1-Dual KO-IFNAR2 cells stimulated with 2′3′cGAMP. It counts as cell-based. The following applies: 15 μM 2′3′cGAMP, 24h, read-out: hSTING EC50. In outline:
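THP1-Dual KO-IFNAR2 cells (2×10E6 cells/mL) were exposed to compounds at 0.0017-100 μM, then stimulated with 2′3′cGAMP (15 μM final) transfected via Lipofectamine 2000. After 24h at 37° C., secreted luciferase in supernatant was read by QUANTI-Luc luminescence; EC50 derived from concentration-response.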
(In general: A reporter such as luciferase makes a cellular process visible.)
In the case of `O=C(Nc1c[nH]c2ccc(-c3cnn(-c4ccc(C(F)(F)F)cc4)c3)cc12)C1CC(F)(F)C1` [Compound 236, 3,3-difluoro-N-(5-(1-(4-(trifluoromethyl)phenyl)-1H-pyrazol-4-yl)-1H-indol-3-yl)cyclobutane-1-carboxamide], the EC50 lay in the range of 200 to 1000 nM.
Then `O=C(Nc1c[nH]c2ccc(-c3cnn(-c4ccc(C(F)(F)F)cc4)c3)cc12)C1CCC(F)(F)CC1` [Compound 237, 4,4-difluoro-N-(5-(1-(4-(trifluoromethyl)phenyl)-1H-pyrazol-4-yl)-1H-indol-3-yl)cyclohexane-1-carboxamide], with 200 to 1000 nM.
In the case of `O=C(Nc1c[nH]c2ccc(-c3cnn(-c4ccc(C(F)(F)F)cc4)c3)cc12)C1(C(F)(F)F)CC1` [Compound 238, 1-(trifluoromethyl)-N-(5-(1-(4-(trifluoromethyl)phenyl)-1H-pyrazol-4-yl)-1H-indol-3-yl)cyclopropane-1-carboxamide], the 50% effective concentration (EC50) fell in the range of 1000 to 5000 nM.
Then `O=C(Nc1c[nH]c2ccc(-c3cnn(-c4ccc(C(F)(F)F)cc4)c3)cc12)C1CC1(F)F` (centres unmarked) [Compound 239, 2,2-difluoro-N-(5-(1-(4-(trifluoromethyl)phenyl)-1H-pyrazol-4-yl)-1H-indol-3-yl)cyclopropane-1-carboxamide], with 200 to 1000 nM; and `CS(=O)(=O)CCC(=O)Nc1c[nH]c2ccc(-c3cnn(-c4ccc(C(F)(F)F)cc4)c3)cc12` [Compound 240, 3-(methylsulfonyl)-N-(5-(1-(4-(trifluoromethyl)phenyl)-1H-pyrazol-4-yl)-1H-indol-3-yl)propanamide], with 200 to 1000 nM; and `O=C(Nc1c[nH]c2ccc(-c3cnn(-c4ccc(C(F)(F)F)cc4)c3)cc12)C1(F)CCC1` [Compound 241, 1-fluoro-N-(5-(1-(4-(trifluoromethyl)phenyl)-1H-pyrazol-4-yl)-1H-indol-3-yl)cyclobutane-1-carboxamide], with 200 to 1000 nM.
Under `O=C(Nc1c[nH]c2ccc(-c3cnn(-c4ccc(C(F)(F)F)cc4)c3)cc12)C1CC(O)C1` (centres unmarked) [Compound 242, 3-hydroxy-N-(5-(1-(4-(trifluoromethyl)phenyl)-1H-pyrazol-4-yl)-1H-indol-3-yl)cyclobutane-1-carboxamide] stands 200 to 1000 nM.
Under `C[C@@H](c1cccc(C(F)(F)F)c1)n1cc(-c2ccc3[nH]cc(NC(=O)C4CCC4)c3c2)cn1` [Compound 243, (S)-N-(5-(1-(1-(3-(trifluoromethyl)phenyl)ethyl)-1H-pyrazol-4-yl)-1H-indol-3-yl)cyclobutanecarboxamide] stands 200 to 1000 nM; under `CC(=O)Nc1c[nH]c2ccc(-c3cnn(-c4ccc(C(F)(F)F)cc4)c3)cc12` [Compound 245, N-(5-(1-(4-(trifluoromethyl)phenyl)-1H-pyrazol-4-yl)-1H-indol-3-yl)acetamide], 40 to 200 nM; under `CC(=O)N(C)c1c[nH]c2ccc(-c3cnn(-c4ccc(C(F)(F)F)cc4)c3)cc12` [Compound 246, N-methyl-N-(5-(1-(4-(trifluoromethyl)phenyl)-1H-pyrazol-4-yl)-1H-indol-3-yl)acetamide], 5000 to 100000 nM.
As for `O=C(Nc1c[nH]c2ccc(-c3cnn(-c4ccc(C(F)(F)F)cc4)c3)cc12)C1CN(CC(F)(F)F)C1` [Compound 247, 1-(2,2,2-trifluoroethyl)-N-(5-(1-(4-(trifluoromethyl)phenyl)-1H-pyrazol-4-yl)-1H-indol-3-yl)azetidine-3-carboxamide], the EC50 was 200 to 1000 nM.
Then `CCC(=O)Nc1c[nH]c2ccc(-c3cnn(-c4cnc(CC)cn4)c3)cc12` [Compound 248, N-(5-(1-(5-ethylpyrazin-2-yl)-1H-pyrazol-4-yl)-1H-indol-3-yl)propionamide], with 1000 to 5000 nM; and `CN1CC(C(=O)Nc2c[nH]c3ccc(-c4cnn(-c5ccc(C(F)(F)F)cc5)c4)cc23)CC1=O` (centres unmarked) [Compound 249, 1-methyl-5-oxo-N-(5-(1-(4-(trifluoromethyl)phenyl)-1H-pyrazol-4-yl)-1H-indol-3-yl)pyrrolidine-3-carboxamide], with 1000 to 5000 nM; and `CC(=O)Nc1c[nH]c2ccc(-c3cnn(Cc4cnc(C5CCC(F)(F)CC5)c(F)c4)c3)cc12` [Compound 250, N-(5-(1-((6-(4,4-difluorocyclohexyl)-5-fluoropyridin-3-yl)methyl)-1H-pyrazol-4-yl)-1H-indol-3-yl)acetamide], with 5000 to 100000 nM.
With `O=C(Nc1c[nH]c2ncc(-c3cnn(-c4ccc(C(F)(F)F)cc4)c3)cc12)C1CCC1` [Compound 251, N-(5-(1-(4-(trifluoromethyl)phenyl)-1H-pyrazol-4-yl)-1H-pyrrolo[2,3-b]pyridin-3-yl)cyclobutanecarboxamide], the EC50 was in the range of 5000 to 100000 nM.
Then `CN1C(=O)CCC1C(=O)Nc1c[nH]c2ccc(-c3cnn(-c4ccc(C(F)(F)F)cc4)c3)cc12` (centres unmarked) [Compound 252, 1-methyl-5-oxo-N-(5-(1-(4-(trifluoromethyl)phenyl)-1H-pyrazol-4-yl)-1H-indol-3-yl)pyrrolidine-2-carboxamide], with 1000 to 5000 nM; and `O=C(Nc1c[nH]c2ccc(-c3cnn(Cc4ccc(C(F)(F)F)cn4)c3)cc12)C1CCC1` [Compound 253, N-(5-(1-((5-(trifluoromethyl)pyridin-2-yl)methyl)-1H-pyrazol-4-yl)-1H-indol-3-yl)cyclobutanecarboxamide], with 200 to 1000 nM; and `CN1CCC1C(=O)Nc1c[nH]c2ccc(-c3cnn(-c4ccc(C(F)(F)F)cc4)c3)cc12` (centres unmarked) [Compound 254, 1-methyl-N-(5-(1-(4-(trifluoromethyl)phenyl)-1H-pyrazol-4-yl)-1H-indol-3-yl)azetidine-2-carboxamide], with 5000 to 100000 nM.
Consider `O=C(Nc1c[nH]c2cnc(-c3cnn(-c4ccc(C(F)(F)F)cc4)c3)cc12)C1CCC1` [Compound 255, N-(5-(1-(4-(trifluoromethyl)phenyl)-1H-pyrazol-4-yl)-1H-pyrrolo[2,3-c]pyridin-3-yl)cyclobutanecarboxamide], for which the EC50 is 5000 to 100000 nM.
Under `CCC(=O)Nc1c[nH]c2ccc(-c3cnn(-c4ccc(C(F)(F)F)c(COC)c4)c3)cc12` [Compound 256, N-(5-(1-(3-(methoxymethyl)-4-(trifluoromethyl)phenyl)-1H-pyrazol-4-yl)-1H-indol-3-yl)propionamide] stands 1000 to 5000 nM.
Then `CC(c1cccc(C(F)(F)F)c1)n1cc(-c2ccc3[nH]cc(NC(=O)C4CCC4)c3c2)cn1` (centres unmarked) [Compound 257, N-(5-(1-(1-(3-(trifluoromethyl)phenyl)ethyl)-1H-pyrazol-4-yl)-1H-indol-3-yl)cyclobutanecarboxamide], with 200 to 1000 nM.
Then `O=C(Nc1c[nH]c2ccc(-c3cnn(Cc4ccc(C(F)(F)F)cc4)c3)cc12)C1CCC1` [Compound 258, N-(5-(1-(4-(trifluoromethyl)benzyl)-1H-pyrazol-4-yl)-1H-indol-3-yl)cyclobutanecarboxamide], with 40 to 200 nM; and `O=C(Nc1c[nH]c2ccc(-c3cnn(-c4ccc(C5CC(F)(F)C5)cc4)c3)cc12)C1CCC1` [Compound 259, N-(5-(1-(4-(3,3-difluorocyclobutyl)phenyl)-1H-pyrazol-4-yl)-1H-indol-3-yl)cyclobutanecarboxamide], with 200 to 1000 nM; and `O=C(Nc1c[nH]c2ccc(-c3cnn(-c4ccc(C(F)(F)F)cc4)c3)cc12)c1ncc[nH]1` [Compound 260, N-(5-(1-(4-(trifluoromethyl)phenyl)-1H-pyrazol-4-yl)-1H-indol-3-yl)-1H-imidazole-2-carboxamide], with 5000 to 100000 nM.
In the case of `O=C(Nc1c[nH]c2ccc(-c3cnn(-c4ccc(C(F)(F)F)cc4)c3)cc12)c1cnn[nH]1` [Compound 261, N-(5-(1-(4-(trifluoromethyl)phenyl)-1H-pyrazol-4-yl)-1H-indol-3-yl)-1H-1,2,3-triazole-5-carboxamide], the EC50 lay in the range of 1000 to 5000 nM.
Regarding `O=C(Nc1c[nH]c2ccc(-c3cnn(-c4ccc(C(F)(F)F)cc4)c3)cc12)c1ccno1` [Compound 262, N-(5-(1-(4-(trifluoromethyl)phenyl)-1H-pyrazol-4-yl)-1H-indol-3-yl)isoxazole-5-carboxamide], the EC50 is 200 to 1000 nM.
Under `O=C(Nc1c[nH]c2ccc(-c3cnn(-c4ccc(C(F)(F)F)cc4)c3)cc12)c1cnco1` [Compound 263, N-(5-(1-(4-(trifluoromethyl)phenyl)-1H-pyrazol-4-yl)-1H-indol-3-yl)oxazole-5-carboxamide] stands 200 to 1000 nM.
In the case of `N#Cc1cc(C(=O)Nc2c[nH]c3ccc(-c4cnn(-c5ccc(C(F)(F)F)cc5)c4)cc23)n[nH]1` [Compound 264, 5-cyano-N-(5-(1-(4-(trifluoromethyl)phenyl)-1H-pyrazol-4-yl)-1H-indol-3-yl)-1H-pyrazole-3-carboxamide], the EC50 lay within 1000 to 5000 nM.
Then `O=C(Nc1c[nH]c2ccc(-c3cnn(-c4ccc(C(F)(F)F)cc4)c3)cc12)c1ccn[nH]1` [Compound 265, N-(5-(1-(4-(trifluoromethyl)phenyl)-1H-pyrazol-4-yl)-1H-indol-3-yl)-1H-pyrazole-5-carboxamide], with 200 to 1000 nM.
Under `O=C(Nc1c[nH]c2ccc(-c3cnn(-c4ccc(C(F)(F)F)cc4)c3)cc12)c1cn[nH]c1` [Compound 266, N-(5-(1-(4-(trifluoromethyl)phenyl)-1H-pyrazol-4-yl)-1H-indol-3-yl)-1H-pyrazole-4-carboxamide] stands 200 to 1000 nM.
For the compound `O=C(Nc1c[nH]c2ccc(-c3cnn(-c4ccc(C(F)(F)F)cc4)c3)cc12)c1cocn1` [Compound 267, N-(5-(1-(4-(trifluoromethyl)phenyl)-1H-pyrazol-4-yl)-1H-indol-3-yl)oxazole-4-carboxamide], the concentration giving a half-maximal response (EC50) was in the range of 200 to 1000 nM.
Then `O=C(Nc1c[nH]c2ccc(-c3cnn(-c4ccc(C(F)(F)F)cc4)c3)cc12)c1cncs1` [Compound 268, N-(5-(1-(4-(trifluoromethyl)phenyl)-1H-pyrazol-4-yl)-1H-indol-3-yl)thiazole-5-carboxamide], with 200 to 1000 nM.
